From patent publication US20210110884A1 (priority 2019, published 2021)

T1: E. coli DHFR (Escherichia coli, UniProt P0ABQ4)
T1 sequence (P0ABQ4 1-159): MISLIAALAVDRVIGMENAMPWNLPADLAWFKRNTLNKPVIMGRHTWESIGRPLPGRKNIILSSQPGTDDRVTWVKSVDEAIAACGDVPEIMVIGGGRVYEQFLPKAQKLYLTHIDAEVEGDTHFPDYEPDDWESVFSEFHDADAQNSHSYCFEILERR


Key:
E. coli DHFR = target: T1, E. coli DHFR; type: biochemical
[1] = type: biochemical

Molecule	decrease of hydride transfer by E. coli DHFR (E. coli DHFR) [fold]	pH independent rate for hydride transfer (E. coli DHFR) [s^−1]	inhibition by selected OP concentrations [1] [%]
CC(C)O [isopropanol]	2.2	530±10	–
BChEG117: butyrylcholinesterase as printed without H; apparently the enzyme lacking the G117H mutation (protein, UniProt P06276 29-602, looked up) Cholinesterase: EDDIIIATKNGKVRGMNLTVFGGTVTAFLGIPYAQPPLGRLRFKKPQSLTKWSDIWNATKYANSCCQNIDQSFPGFHGSEMWNPNTDLSEDCLYLNVWIPAPKPKNATVLIWIYGGGFQTGTSSLHVYDGKFLARVERVIVVSMNYRVGALGFLALPGNPEAPGNMGLFDQQLALQWVQKNIAAFGGNPKSVTLFGESAGAASVSLHLLSPGSHSLFTRAILQSGSFNAPWAVTSLYEARNRTLNLAKLTGCSRENETEIIKCLRNKDPQEILLNEAFVVPYGTPLSVNFGPTVDGDFLTDMPDILLELGQFKKTQILVGVNKDEGTAFLVYGAPGFSKDNNSIITRKEFQEGLKIFFPGVSEFGKESILFHYTDWVDDQRPENYREALGDVVGDYNFICPALEFTKKFSEWGNNAFFYYFEHRSSKLPWPEWMGVMHGYEIEFVFGLPLERRDNYTKAEEILSRSIVKRWANFAKYGNPNETQNNSTSWPVFKSTEQKYLTLNTESTRIMTKLRAQQCRFWTSFFPKVLEMTGNIDEAEWEWKAGFHRWNNYMMDWKNQFNDYTSKKESCVGL	–	–	> 99
